Reference: patent publication US20250186470A1, “Compositions and Methods Using Lactulose for Treating Disease” (THE UNIVERSITY OF CHICAGO, priority 2023, published 2025)

Tests used:
[1] = 90-day survival of liver disease patients, Kaplan-Meier and Cox proportional hazards; type: in vivo, human; conditions: Table S10, covariate Lactulose, Bifido >10%, model also has MELD-Na, age and sex at enrollment
Method: FIGS. 5A-5H: Bifidobacteria expansion and associated metabolite production are associated with decreased incidence of systemic infection and prolonged survival. (A) A Linear discriminant analysis effect size (LEfSe) showing the significant (Wilcoxon rank-sum, two-tailed, p≤0.05) effect sizes of taxa between groups. (B) Acetate (mM) and taurocholic acid (μg/mL) were quantified, and (C) conversion from conjugated-primary BA to primary BA and then to secondary BAs was tested for each sample. Each point represents a molar ratio for an individual sample. (A-C) Sample size: n=101 (no SBP), n=21 (SBP)). (D) LEfSe showing the significant (Wilcoxon rank-sum, two-tailed, p≤0.05) effect sizes of taxa between groups. (E) Acetate (mM) and taurocholic acid (μg/mL) were quantified, and (F) conversion from conjugated-primary BA to primary BA and then to secondary BAs was tested for each sample. Each point represents a molar ratio for an individual sample. (D-F) Sample size: n=227 (no bacteremia), n=19 (bacteremia)). (B,C,E, and F) Each point represents a single sample. Median and interquartile range are indicated by the horizontal line and box, respectively. The lower vertical line depicts Q1-1.5*IQR and the upper vertical line depicts Q3+1.5*IQR. Statistical comparisons between individual groups were analyzed using a two-tailed Wilcoxon rank sum test. […]

[2] = test system: SBP; test: Spontaneous bacterial peritonitis (SBP) in liver disease patients paired with fecal samples, logistic regression; type: in vivo, human
From the text: FIGS. 12A-12E: Bifidobacteria expansion and associated metabolite production are associated with decreased incidence of spontaneous bacterial peritonitis (SBP). (A) Flow diagram depicting number of samples and number of patients that were filtered out at each step of analysis for SBP. (B) Taxonomic relative abundance by shotgun metagenomics of stool samples paired to ascites samples is plotted in order of decreasing Bifidobacteria abundance from left to right. Underneath each stool sample is the clinical diagnosis associated with an ascites sample (SBP (red) or not SBP (green)). (C) Volcano plot of normalized metabolite concentrations. P-values were calculated using a two-tailed Wilcoxon rank sum test and are corrected for multiple comparisons using the Benjamini-Hochberg procedure. Values with log 2 fold-change >1 (corresponding to a 2-fold change with a p-value <0.05) were considered significant. (D and E) Quantitative levels for butyrate, propionate, lithocholic acid, and alloisolithocholic acid were compared from samples associated and not associated with SBP. Units for SCFA are mM, and units for BA derivatives are in μg/mL. Each point represents a single sample. Median and interquartile range are indicated by the horizontal line and box, respectively. […] Statistical comparisons between individual groups were analyzed using a two-tailed Wilcoxon rank sum test. […]

## OC[C@H]1O[C@@H](O[C@@H]2[C@@H](CO)OC(O)(CO)[C@H]2O)[C@H](O)[C@@H](O)[C@H]1O (mixture of isomers) [Lactulose, lactulose]
[1]
  Estimate (Cox proportional hazards coefficient): −0.87
  Exp (coef): 0.42
[2]; N = 21
  Samples with lactulose exposure among sbp: (76%)
[2]; N = 101
  Samples with lactulose exposure among no sbp: (79%)
